Assays:
in vivo = details: mouse, po
From the text: Method of studying LD50 in the mouse after a single oral administration.
Thereafter, the animals are fed again (Morini MIL fodder for mice).

[1] = tested on: bronchial secretion (mucoproduction); test: Bronchosecretagogue activity (mucoproduction) in the rabbit; type: in vivo, rabbit (male brown); details: oral, relative activity, d,l-trans-sobrerol taken equal to 100
Protocol: Method of mucoproduction in the rabbit according to Scuri R. et al Boll. Chem. Farm.
Male brown rabbits weighing 2.8-3.5 kg are used. To said animals, by a surgical operation under anaesthesia, a T shaped tracheal cannula is applied, as described in the above bibliographic reference.
To the cannula, a container (a polypropylene 2 ml test tube) is applied for periodical collection of the bronchial secretion. The study of mucoproduction, started at the fourth day after the operation, is divided into two 4 hour periods for collecting and measuring the mucus, and precisely from 8:30 to 12:30 (I), and from 12:30 to 16:30 (II).
The activity of each drug is tested by administering the same by oesophageal way (os) at the beginning of the II period and by evaluating the percent increase of mucoproduction (weight of the mucus as collected) in the II period as compared with the I period.

[2] = tested on: bronchial mucus of bronchitic rabbits; test: Fluidizing "in vivo" activity: viscosity of bronchial mucus of bronchitic rabbits; design: species or system rabbit (male, bronchitic by sulphuric acid aerosol); details: for Fluidizing "in vivo" activity of bronchial mucus: bronchitic rabbits, oral, relative activity, d,l-trans-sobrerol taken equal to 100
Protocol: The viscosity of the mucus as withdrawn is studied by using a Contraves RM16 microviscosimeter and it is recorded by a Rheomat 15 T-FC apparatus.

[3] = tested on: rectal temperature, dry yeast-induced fever; test: Antipyretic activity in the rat (dry yeast fever); type: in vivo, rat (albino Wistar female); details: for Antipyretic activity: rat, oral, temperature index over 4-25 h, relative activity, p-aminophenol taken equal to 100
Protocol: Method for studying the antipyretic activity in the rat.
Albino Wistar female rats, weighing 100-140g, are utilized. The animals having a rectal, basal temperature from 36° to 37° C. are selected.
The test substances are administered by oral way contemporaneously with the pyretic agent (dry yeast, suspended in water at the 20% concentration; volume administered 15 ml/kg subcutaneously) at groups of 5 animals per dose.
After 4,5,6,7 and 25 hours from the treatment, the rectal temperature of the animals is measured by an Ellab RM6 probe, connected to an Ellab mod. TE-3 thermometer.
The activity of the drugs is evaluated by utilizing a temperature index which is provided by the algebraic sum of the differences in the rectal temperature between the measure values at the various times and the basal value.

[4] = Pharmacokinetics: plasma levels in the rat after oral administration (HPLC); type: in vivo; details: Wistar rats, fasted, 400 mg/kg oral single administration, 0.5-6 h
Protocol: For this study, two groups of Wistar rats (170 280 g), fasting about 15 hours before treatment, are utilized. The animals were allowed to drink an aqueous 10% glucose solution. To the rats, the compound of formula I, by oral way (transoesophageal intubation) is administered at the dose of 400 mg/kg (a single administration) and at 0.5 h; 1 h; 1.5 h; 2 h; 3 h; 4 h; 6 h from administration, 5 rats/time are sacrificed. The blood, as collected into test tubes containing sodium heparin, is centrifuged and the plasma so obtained is utilized for quantitative analysis of the compound of formula (I) of the invention by means of high pressure liquid chromatography (HPLC) with an U.V. detector.

CC1=CC[C@H](C(C)(C)O)C[C@H]1OC(=O)CCC(=O)Nc1ccc(O)cc1 (relative stereo) [CO/1499, 5-[3-N-[(4-hydroxyphenyl)carboxamido]-1-oxo-propxy]-α,α-4-trimethyl-3-cyclohexene-1-methanol]
LD50 at 336 h (in vivo): 2070 mg/kg | Bronchosecretagogue activity [1]: 131 | Fluidizing "in vivo" activity of bronchial mucus [2]: 120 | mucosecretolytic-fluidizing activity ([2]; statement in words, versus activity ascribed to the d,l-trans-sobrerol moiety): potency increase | Antipyretic activity [3]: 127 | antipyretic activity compared with paracetamol or any drug of the same therapeutical class ([3]; statement in words): equivalent of a dose of either paracetamol or any drug of the same therapeutical class | absorption (course of the plasmatic levels) [4]: quick and good absorption

CC1=CC[C@H](C(C)(C)O)C[C@H]1O (relative stereo) [d,l-trans-sobrerol]
LD50 at 336 h (in vivo): 2340 mg/kg | Bronchosecretagogue activity [1]: 100 | Fluidizing "in vivo" activity of bronchial mucus [2]: 100 | Antipyretic activity [3]: 0

Nc1ccc(O)cc1 [p-aminophenol]
Bronchosecretagogue activity [1]: 0 | Fluidizing "in vivo" activity of bronchial mucus [2]: 0 | Antipyretic activity [3]: 100

Reference: US4596824A, “p-Aminophenol with mucosecretolytic-fluidizing and antipyretic activity, a process for its preparation and pharmaceutical compositions thereof” (Camillo Corvi S.p.A., priority 1984, dated 1986)
